Consider 3 molecules from patent US20140199714A1, “METHOD FOR DETECTING CANCER CELLS METASTASIZING INTO SENTINEL LYMPH NODE” (SHINSHU UNIVERSITY, priority 2008, published 2014).

For assay [1], the system named is attachment of carcinoma cells to human LECs. Put plainly: In vitro human LEC attachment assay (ATP or MDA-MB-231 supernatant stimulation). In kind it is cell-based. To be noted: 48 hrs. stimulation (10^−7M ATP or MDA-MB-231 supernatant) vs DMEM/F12 Ham negative control; p<0.01; n=5. The procedure: The human LECs were plated to form a monolayer on type I collagen-coated 35 mm plates and incubated to confluence at 37° C. in 5% O2, 5% CO2, and 90% N2. The LECs were kept in serum-starved medium of EBM-2 with 3% FBS. Selected plates were treated with 10^−7M ATP or the supernatant of culture medium of MDA-MB-231 cells for 48 hrs. In some experiments, 10^−6M suramin was simultaneously added to the plates during 48 hrs. treatment with 10^−7M ATP or the culture medium supernatant of MDA-MB-231 cells.
In some experiments, the plates were also treated with anti-human-ICAM-1 antibody (available from R&D Systems, US) for 30 min after 48 hrs. treatment with the culture medium supernatant of MDA-MB-231 or 10^−7M ATP. Breast carcinoma cells stained with PKH26 fluorescent dye (available from SIGMA, US) were then plated at 5×10^4 cells per plate and incubated for 30 min. at 37° C. Unbound cells were removed by aspiration and the plates washed with DMEM/F12 three times. Attachment was quantitated by counting cells under ×100 magnification using a microscope (available from Leica, Switzerland).

The test system of another assay is ICAM-1 on human LECs. Put plainly: Immunohistochemical expression of ICAM-1 on cultured human LECs. The format is cell-based.
The subject of the next assay is prostate cancer cells. To be noted: via P2 receptors; cited from earlier work.
Assay [2] deals with F-actin in LECs derived from human collecting lymph vessel. Put plainly: Staining of cytoskeletal protein F-actin in human LECs. In kind it is cell-based. To be noted: 10 ng/mL TNF-α; 1 ng/mL and 10 ng/mL IL-1β; 2 hrs. at 37° C.; vs negative control. The procedure:
LECs derived from human collecting lymph vessel, which were transplanted into a culture system, were plated on glass slide, and repeatedly subcultured to confluence. Stimulating factors of 10 ng/mL of tumor necrosis factor-α (TNF-α) of Catalog No. T-0157 (available from SIGMA, US), 1 ng/mL and 10 ng/mL of interleukin-1β (IL-1β) of Catalog No. 200-01B (available from PeproTech, US) were respectively dissolved in EBM-2 containing 3% FBS of Catalog No. CC-3156 (available from Sankyo Junyaku Co., Ltd., Japan) and added onto the cells, and then the cells were incubated for 2 hrs. at 37° C. They were fixed with 3.7% formalin. They were washed with PBS solution, and then still stood in PBS solution containing 0.1% TRITON X-100 of Catalog No. X-100 (available from SIGMA, US) for 5 min. Additionally they were washed with PBS solution, and then phalloidin-FITC antibody of Catalog No. P-5282 (available from SIGMA, US) diluted 500 times with PBS solution containing 0.1% BSA was added thereto. They were still stood for 2 hrs. at room temperature. After they were washed with PBS solution, and mounted in MOBI GLOW MOUNTING MEDIUM. Also negative control was similarly prepared except for using no stimulating factor. […] The LECs of the negative control without the stimulating factor indicate obscure green fluorescence, and there were few expression of F-actin.

A further assay deals with E-selectin on human LECs. Put plainly: Immunohistochemical expression of E-selectin on cultured human LECs. In kind it is cell-based. Conditions: 18 hrs.-stimulation with 10 ng/mL TNF-α or 100 ng/mL LPS. The procedure:
(§1) Using an indirect immunohistochemical technique, the inventors examined the effects of the supernatants of culture medium of two kinds of carcinoma cells, MDA-MB-231 and MCF-7, on the expression of adhesion molecules such as E-selectin, P-selectin, vascular cell adhesion molecule (VCAM)-1, and intercellular adhesion molecule (ICAM)-1 on the human LECs. The carcinoma cells were plated in DMEM/F12 with 10% FBS, which was replaced the following day with DMEM/F12 with 3% FBS, and then collected after overnight culture. The collected solution was centrifuged at 2,000 rpm for 5 min. at 4° C. To examine the effects of the supernatants on the expression of the adhesion molecules on the human LECs, 1 mL of each collected solution was added to starvation culture medium, EBM-2 with 3% FBS of the human LECs, and then stimulated for 48 hrs. on the cells. In some experiments, the supernatant solutions at different concentrations (1/100 or 1/10,000 dilution) were constructed with appropriate volumes of DMEM/F12 with 3% FBS.
(§2) Indirect immunohistochemical studies were performed on the cultured LECs seeded or glass slides coated with type I collagen, and then the cells were fixed with 3.3% formalin in phosphate-buffered saline solution (PBS), for 20 min. at room temperature. The cells were washed three times with PBS, and then incubated overnight at 4° C. with primary polyclonal human antisera to E-selectin/CD62E (dilution 10 μg/mL, available from R&D Systems, US), P-selectin/CD62P (dilution 10 μg/mL, available from R&D Systems, US), VCAM-1/CD106 (dilution 10 μg/mL, available from R&D Systems, US), and ICAM-1/CD54 (dilution 10 μg/mL, available from R&D Systems, US).
(§3) Before primary staining, the cultured cells were permeabilized with 0.1% TRITON-X. After washing three times in PBS, the cells were incubated for 1 hr. at room temperature with 1:100 diluted ALEXA FLUOR 488 donkey anti-mouse IgG (available from Invitrogen, US). The nuclei of cultured cells were counter-stained and mounted with PROLONG GOLD antifade reagent with 4′-6-diamidine-2-phenylindole (DAPI) (available from Molecular Probes, US), examined by a fluorescent microscope (Leica, Switzerland), and photographed.
(§4) Immunohistochemistry was performed on the cultured human LECs or the fresh-frozen SLNs isolated from the breast cancer patients. In brief, the cultured LECs were fixed with 10% formalin in the phosphate-buffered saline solution (PBS) at room temperature. The cells were incubated for 4 hrs. at room temperature with primary polyclonal human antisera platelet-endothelial cell adhesion molecule (PECAM)-1 (dilution 1:100, available from BD Biosciences, US), lymphatic vessel endothelial hyaluronan receptor (LYVE)-1 (dilution 1:50, available from RELIATech, Germany), PROX-1 (dilution 1:50, available from AngioBio, US), podoplanin (dilution 1:50, available from AngioBio, US), vascular endothelium growth factor receptor 3 (VEGF R3) (dilution 1:50, available from Santa Cruz, US), E-selectin/CD62E (dilution 1:50, available from R&D systems, US), P-selectin/CD62P (dilution 1:50, available from R&D systems, US), vascular cell adhesion molecule (VCAM)-1/CD106 (dilution 1:50, available from R&D systems, US), and intercellular adhesion molecule (ICAM)-1/CD54 (dilution 1:50, available from R&D systems, US). Before the staining, permeabilization of the cultured cells with 0.1% TRITON-X was performed. Then, the cells were stained using the following antibodies: ALEXA FLUOR 488 chicken anti-rabbit IgG or ALEXA FLUOR 488 donkey anti-mouse IgG (available from Invitrogen, US). The nuclei of the cultured cells were counter-stained and mounted with ProLong Gold antifade reagent with 4′-6-diamidine-2-phenylindole (DAPI) (available from Molecular Probes, US). The cultured cells were examined by a fluorescent microscope (available from Leica, Germany) and photographed. […]

The next assay deals with P-selectin on human LECs. Put plainly: Immunohistochemical expression of P-selectin on cultured human LECs. The format is cell-based. Conditions: 18 hrs.-stimulation with 10 ng/mL TNF-α or 100 ng/mL LPS. The procedure:
as §1, §2
Before primary staining, the cultured cells were permeabilized with 0.1% TRITON-X. After washing three times in PBS, the cells were incubated for 1 hr. at room temperature with 1:100 diluted ALEXA FLUOR 488 donkey anti-mouse IgG (available from Invitrogen, US). […]

For another assay, the system named is VCAM-1 on human LECs. Put plainly: Immunohistochemical expression of VCAM-1 on cultured human LECs. Conditions: 18 hrs.-stimulation with 10 ng/mL TNF-α or 100 ng/mL LPS. The format is cell-based. The procedure: as §1, §2, §3, §4

For the molecule `Nc1ncnc2c1ncn2[C@@H]1O[C@H](COP(=O)(O)OP(=O)(O)OP(=O)(O)O)[C@@H](O)[C@H]1O` [ATP], the “in vitro attachment of carcinoma cells to human LECs” value in assay [1] is reported as “significant increase”. The “expression of ICAM-1 on human LECs” value in the assay on ICAM-1 on human LECs (10^−8 or 10^−7M ATP for 48 hrs.) is on record as “marked expression”. In addition, the “inhibition of growth of prostate cancer cells in vitro” value in the assay with prostate cancer cells is on record as “up to 90%”.

“IL-1β: interleukin-1β, stimulating factor”: in assay [2], the “expression of F-actin (phalloidin-FITC fluorescence)” value was “increase of expression of F-actin”.

Take TNF-α: the “expression of E-selectin on human LECs (positive controls)” value with E-selectin on human LECs is “marked expression”. Moreover, the “expression of P-selectin on human LECs (positive controls)” value in the assay on P-selectin on human LECs is reported as “marked expression”. Besides, in the assay with VCAM-1 on human LECs, the “expression of VCAM-1 on human LECs (positive controls)” value was “marked expression”. In addition, the “expression of F-actin (phalloidin-FITC fluorescence)” value in assay [2] is listed as “increase of expression of F-actin”. The “expression of ICAM-1 on human LECs (positive controls)” value in the assay on ICAM-1 on human LECs (18 hrs.-stimulation with 10 ng/mL TNF-α or 100 ng/mL LPS) is recorded as “marked expression”.
